One assay has as its system Candida albicans A9540. Nature of the assay: In vitro antifungal activity (MIC), agar dilution on yeast morphology agar. The class given is cell-based. The note with it: YMA, 0.06M phosphate (pH 7.0), 28°C, 40 hours, read-out: MIC Ca-4. How it is done:
(§1) The in vitro antifungal activity (MIC) of the compounds of the invention was determined on yeast morphology agar (YMA, Difco Laboratories, USA), buffered with 0.06M phosphate (pH 7.0). Nine parts of molten agar were combined with one part of antibiotic dilution in petri dishes. A 5-µl suspension containing 2x10⁶ cells/ml was spotted on the surface of the agar plates. The plates were incubated at 28°C and MICs were recorded after 40 hours of the incubation. All of the 11-hydroxy derivatives of Formula I-I are active against a wide range of fungi.

In assay [1] the test system is Candida tropicalis IFO10241. Described as above. The class given is cell-based. The note with it: YMA, 0.06M phosphate (pH 7.0), 28°C, 40 hours, read-out: MIC Ct-12. How it is done: as §1
Assay [2] deals with Cryptococcus neoformans IAM4514. Described as above. Type of assay: cell-based. The note with it: YMA, 0.06M phosphate (pH 7.0), 28°C, 40 hours, read-out: MIC Cn-2. Here is the method: as §1
The test system of another assay is Strain AA 3798. The assay can be described thus: Antibiotic susceptibility of the producing strain, antibiotic disks. Type of assay: cell-based, unidentified actinomycete. The note with it: yeast-glucose-malt agar, 37°C, 4 days. Here is the method: Antibiotic susceptibility of strain AA 3798 was examined using antibiotic disks (Tridisk, Eiken Chemical Co., Ltd). The disks were placed onto the surface of yeast-glucose-malt agar (yeast extract 0.1%, glucose 1%, malt extract 0.1%, CaCl₂·2H₂O 0.05%, and agar 1.5%) which had been seeded by strain AA 3798 (4% inoculum), and the plates were then incubated at 37°C for 4 days.

Converted amounts (≈) assume the structure as drawn.

`CNC1C(C)OC(OC2c3cc(C)c(C(=O)NC(C)C(=O)O)c(O)c3-c3c(cc4c(c3O)C(=O)c3cc(O)cc(O)c3C4=O)C2O)C(O)C1OC1OCC(O)C(O)C1O` (stereo not drawn) [Compound IA, 11-O-Demethylpradimicin A]: the MIC amounted to 6.3 µg/mL (≈ 7.62 µM) in the assay with Candida albicans A9540, 25 µg/mL (≈ 30.2 µM) in assay [1] and 3.1 µg/mL (≈ 3.75 µM) in assay [2].
With `Cc1cc2c(c(O)c1C(=O)NC(C)C(=O)O)-c1c(cc3c(c1O)C(=O)c1cc(O)cc(O)c1C3=O)C(O)C2OC1OC(C)C(N)C(OC2OCC(O)C(O)C2O)C1O` (stereo not drawn) [IC, 11-O-Demethylpradimicin C], the MIC amounted to 6.3 µg/mL (≈ 7.75 µM) in the assay on Candida albicans A9540, 12.5 µg/mL (≈ 15.4 µM) in assay [1] and 1.6 µg/mL (≈ 1.97 µM) in assay [2].
For `CNC1C(C)OC(OC2c3cc(C)c(C(=O)NC(CO)C(=O)O)c(O)c3-c3c(cc4c(c3O)C(=O)c3cc(O)cc(O)c3C4=O)C2O)C(O)C1OC1OCC(O)C(O)C1O` (stereo not drawn) [ID, 11-O-Demethylpradimicin FA-1], in that order: 6.3 µg/mL (≈ 7.48 µM), 12.5 µg/mL (≈ 14.8 µM) and 3.1 µg/mL (≈ 3.68 µM).
As for `Cc1cc2c(c(O)c1C(=O)NC(CO)C(=O)O)-c1c(cc3c(c1O)C(=O)c1cc(O)cc(O)c1C3=O)C(O)C2OC1OC(C)C(N(C)C)C(OC2OCC(O)C(O)C2O)C1O` (stereo not drawn) [IE, 11-O-Demethyl-BMS-181182], the results for the MIC (with Candida albicans A9540; in assay [1]; in assay [2]) were 6.3 µg/mL (≈ 7.35 µM), 25 µg/mL (≈ 29.2 µM) and 6.3 µg/mL (≈ 7.35 µM), respectively.
In the case of `Cc1cc2c(c(O)c1C(=O)NC(CO)C(=O)O)-c1c(cc3c(c1O)C(=O)c1cc(O)cc(O)c1C3=O)C(O)C2OC1OC(C)C(O)C(OC2OCC(O)C(O)C2O)C1O` (stereo not drawn) [IF, 11-O-Demethyl-BMS-181184], the MIC in the assay with Candida albicans A9540 was found to be 6.3 µg/mL (≈ 7.59 µM); in assay [1], 12.5 µg/mL (≈ 15.1 µM); in assay [2] it was 12.5 µg/mL (≈ 15.1 µM).
Consider `CCOc1cc(O)c2c(c1)C(=O)c1c(cc3c(c1O)-c1c(cc(C)c(C(=O)NCC(=O)O)c1O)[C@H](O[C@@H]1O[C@H](C)[C@H](O)[C@H](O[C@@H]4OC[C@@H](O)[C@H](O)[C@H]4O)[C@H]1O)[C@H]3O)C2=O` [IIA, 11-O-Dexylosyl-11-O-ethylpradimicin T1], for which the MIC in the assay on Candida albicans A9540 was found to be 3.1 µg/mL (≈ 3.75 µM); in assay [1], 12.5 µg/mL (≈ 15.1 µM); in assay [2] it was 1.6 µg/mL (≈ 1.93 µM).
`Cc1cc2c(c(O)c1C(=O)NCC(=O)O)-c1c(cc3c(c1O)C(=O)c1cc(OCCF)cc(O)c1C3=O)[C@H](O)[C@H]2O[C@@H]1O[C@H](C)[C@H](O)[C@H](O[C@@H]2OC[C@@H](O)[C@H](O)[C@H]2O)[C@H]1O` [IIB, 11-O-Dexylosyl-11-O-(2-fluoroethyl)pradimicin T1]: the MIC in the assay on Candida albicans A9540 was 3.1 µg/mL (≈ 3.67 µM); in assay [1], 6.3 µg/mL (≈ 7.45 µM); in assay [2], 1.6 µg/mL (≈ 1.89 µM).
Take `C=CCOc1cc(O)c2c(c1)C(=O)c1c(cc3c(c1O)-c1c(cc(C)c(C(=O)NCC(=O)O)c1O)[C@H](O[C@@H]1O[C@H](C)[C@H](O)[C@H](O[C@@H]4OC[C@@H](O)[C@H](O)[C@H]4O)[C@H]1O)[C@H]3O)C2=O` [IIC, 11-O-Allyl-11-O-dexylosylpradimicin T1]: the MIC in the assay on Candida albicans A9540 was determined as 6.3 µg/mL (≈ 7.5 µM); in assay [1], 12.5 µg/mL (≈ 14.9 µM); in assay [2], 3.1 µg/mL (≈ 3.69 µM).
For `Cc1cc2c(c(O)c1C(=O)NCC(=O)O)-c1c(cc3c(c1O)C(=O)c1cc(OCc4ccccc4)cc(O)c1C3=O)[C@H](O)[C@H]2O[C@@H]1O[C@H](C)[C@H](O)[C@H](O[C@@H]2OC[C@@H](O)[C@H](O)[C@H]2O)[C@H]1O` [IID, 11-O-Benzyl-11-O-dexylosylpradimicin T1], in that order: more than 100 µg/mL, more than 100 µg/mL and 12.5 µg/mL (≈ 14 µM).
For the compound `CNC1C(C)OC(OC2c3cc(C)c(C(=O)NC(C)C(=O)O)c(O)c3-c3c(cc4c(c3O)C(=O)c3cccc(O)c3C4=O)C2O)C(O)C1OC1OCC(O)C(O)C1O` (stereo not drawn) [IIG, 11-Demethoxypradimicin A], the results for the MIC (with Candida albicans A9540; in assay [1]; in assay [2]) were 6.3 µg/mL (≈ 7.77 µM), 12.5 µg/mL (≈ 15.4 µM) and 1.6 µg/mL (≈ 1.97 µM), respectively.
For `Cc1cc2c(c(O)c1C(=O)NCC(=O)O)-c1c(cc3c(c1O)C(=O)c1cccc(O)c1C3=O)[C@H](O)[C@H]2O[C@@H]1O[C@H](C)[C@H](O)[C@H](O[C@@H]2OC[C@@H](O)[C@H](O)[C@H]2O)[C@H]1O` [III, 11-Dexylosyloxypradimicin T1], in that order: 6.3 µg/mL (≈ 8.04 µM), 12.5 µg/mL (≈ 16 µM) and 6.3 µg/mL (≈ 8.04 µM).
Consider `Cc1cc2c(c(O)c1C(=O)NCC(=O)O)-c1c(cc3c(c1O)C(=O)c1cc(N(C)C)cc(O)c1C3=O)[C@H](O)[C@H]2O[C@@H]1O[C@H](C)[C@H](O)[C@H](O[C@@H]2OC[C@@H](O)[C@H](O)[C@H]2O)[C@H]1O` [IIJ, 11-Dexylosyloxy-11-dimethylaminopradimicin T1], for which the values for the MIC (in the assay with Candida albicans A9540; in assay [1]; in assay [2]) were 12.5 µg/mL (≈ 15.1 µM), more than 100 µg/mL and 50 µg/mL (≈ 60.5 µM), respectively.
Consider `CC1(C)S[C@@H]2[C@H](NC(=O)[C@H](N)c3ccccc3)C(=O)N2[C@H]1C(=O)O` [ampicillin], for which the “Antibiotic susceptibility of strain AA 3798” value (“Antibiotic susceptibility” below) in the assay on Strain AA 3798 (disk 20 µg) is recorded as “resistance”.
`CC1=C(C(=O)O)N2C(=O)[C@@H](NC(=O)[C@H](N)c3ccccc3)[C@H]2SC1` [cephalexin]: the “Antibiotic susceptibility” value in the assay with Strain AA 3798 (disk 10 µg) is reported as “resistance”.
For the compound `O=C(N[C@H](CO)[C@H](O)c1ccc([N+](=O)[O-])cc1)C(Cl)Cl` [chloramphenicol], the “Antibiotic susceptibility” value in the assay on Strain AA 3798 (disk 10 µg) is recorded as “susceptible”.
Regarding `O=C(O)[C@H]1/C(=C/CO)O[C@@H]2CC(=O)N21` [clavulanic acid], the “Antibiotic susceptibility” value in the assay with Strain AA 3798 (disk 1 µg) is “susceptible”.
As for `CC[C@H]1OC(=O)[C@H](C)[C@@H](O[C@H]2C[C@@](C)(OC)[C@@H](O)[C@H](C)O2)[C@H](C)[C@@H](O[C@@H]2O[C@H](C)C[C@H](N(C)C)[C@H]2O)[C@](C)(O)C[C@@H](C)C(=O)[C@H](C)[C@@H](O)[C@]1(C)O` [erythromycin], in the assay with Strain AA 3798 (disk 10 µg), the “Antibiotic susceptibility” value was “resistance”.
For `C[C@@H]1O[C@@H]1P(=O)(O)O` [fosfomycin], in the assay with Strain AA 3798 (disk 50 µg), the “Antibiotic susceptibility” value is “resistance”.
As for `CO[C@@H]1[C@@H](O[C@@H]2O[C@H](C)[C@@H](O[C@H]3C[C@@](C)(O)[C@@H](OC(=O)CC(C)C)[C@H](C)O3)[C@H](N(C)C)[C@H]2O)[C@@H](CC=O)C[C@@H](C)[C@@H](O)/C=C/C=C/C[C@@H](C)OC(=O)C[C@H]1OC(C)=O` [josamycin], the “Antibiotic susceptibility” value in the assay on Strain AA 3798 (disk 15 µg) was “resistance”.
Regarding `CCC[C@@H]1C[C@@H](C(=O)N[C@@H]([C@H]2O[C@H](SC)[C@H](O)[C@@H](O)[C@H]2O)[C@@H](C)O)N(C)C1` [lincomycin], the “Antibiotic susceptibility” value with Strain AA 3798 (disk 15 µg) is listed as “resistance”.
On the same count and under the same terms, the result for `CCn1cc(C(=O)O)c(=O)c2ccc(C)nc21` [nalidixic acid] reads “resistance”.
For `CCn1cc(C(=O)O)c(=O)c2cc(F)c(N3CCNCC3)cc21` [norfloxacin], the “Antibiotic susceptibility” value with Strain AA 3798 (disk 2 µg) is “susceptible”.
Turning to `CC1(C)S[C@@H]2[C@H](NC(=O)[C@H](C(=O)O)c3ccsc3)C(=O)N2[C@H]1C(=O)O` [ticarcillin], the “Antibiotic susceptibility” value in the assay with Strain AA 3798 (disk 2 µg) is “susceptible”.
On to `NC[C@H]1O[C@H](O[C@H]2[C@H](O)[C@@H](O[C@H]3O[C@H](CO)[C@@H](O)[C@H](N)[C@H]3O)[C@H](N)C[C@@H]2N)[C@H](N)C[C@@H]1O` [tobramycin], for which the “Antibiotic susceptibility” value in the assay with Strain AA 3798 (disk 10 µg) is recorded as “resistance”.
colistin: the “Antibiotic susceptibility” value in the assay on Strain AA 3798 (disk 50 U) is on record as “susceptible”.
Consider gentamicin, for which the “Antibiotic susceptibility” value with Strain AA 3798 (disk 5 µg) is on record as “resistance”.
As for polymyxin B, the “Antibiotic susceptibility” value in the assay with Strain AA 3798 (disk 300 U) is reported as “resistance”.

The values above are taken from EP0600782A1, “C-11 modified pradimicin derivatives” (priority 1992, dated 1994).
